Here are results for eight compounds from ChEMBL document CHEMBL3132769, “Fragment growing to retain or alter the selectivity of anchored kinase hinge-binding fragments” (Medchemcomm, 2014).

The target of assay [1] is Tyrosine-protein kinase ABL2 (Homo sapiens) (UniProt P42684). Description: Inhibition of human truncated Arg expressed in baculovirus assessed as substrate phosphorylation using fluorescence-labelled peptides as substrate at 420 uM after 90 mins by microfluidic peptide phosphorylation assay.
Tyrosine-protein kinase ABL2 (Homo sapiens), sequence (P42684 whole entry, the tested form may be a part): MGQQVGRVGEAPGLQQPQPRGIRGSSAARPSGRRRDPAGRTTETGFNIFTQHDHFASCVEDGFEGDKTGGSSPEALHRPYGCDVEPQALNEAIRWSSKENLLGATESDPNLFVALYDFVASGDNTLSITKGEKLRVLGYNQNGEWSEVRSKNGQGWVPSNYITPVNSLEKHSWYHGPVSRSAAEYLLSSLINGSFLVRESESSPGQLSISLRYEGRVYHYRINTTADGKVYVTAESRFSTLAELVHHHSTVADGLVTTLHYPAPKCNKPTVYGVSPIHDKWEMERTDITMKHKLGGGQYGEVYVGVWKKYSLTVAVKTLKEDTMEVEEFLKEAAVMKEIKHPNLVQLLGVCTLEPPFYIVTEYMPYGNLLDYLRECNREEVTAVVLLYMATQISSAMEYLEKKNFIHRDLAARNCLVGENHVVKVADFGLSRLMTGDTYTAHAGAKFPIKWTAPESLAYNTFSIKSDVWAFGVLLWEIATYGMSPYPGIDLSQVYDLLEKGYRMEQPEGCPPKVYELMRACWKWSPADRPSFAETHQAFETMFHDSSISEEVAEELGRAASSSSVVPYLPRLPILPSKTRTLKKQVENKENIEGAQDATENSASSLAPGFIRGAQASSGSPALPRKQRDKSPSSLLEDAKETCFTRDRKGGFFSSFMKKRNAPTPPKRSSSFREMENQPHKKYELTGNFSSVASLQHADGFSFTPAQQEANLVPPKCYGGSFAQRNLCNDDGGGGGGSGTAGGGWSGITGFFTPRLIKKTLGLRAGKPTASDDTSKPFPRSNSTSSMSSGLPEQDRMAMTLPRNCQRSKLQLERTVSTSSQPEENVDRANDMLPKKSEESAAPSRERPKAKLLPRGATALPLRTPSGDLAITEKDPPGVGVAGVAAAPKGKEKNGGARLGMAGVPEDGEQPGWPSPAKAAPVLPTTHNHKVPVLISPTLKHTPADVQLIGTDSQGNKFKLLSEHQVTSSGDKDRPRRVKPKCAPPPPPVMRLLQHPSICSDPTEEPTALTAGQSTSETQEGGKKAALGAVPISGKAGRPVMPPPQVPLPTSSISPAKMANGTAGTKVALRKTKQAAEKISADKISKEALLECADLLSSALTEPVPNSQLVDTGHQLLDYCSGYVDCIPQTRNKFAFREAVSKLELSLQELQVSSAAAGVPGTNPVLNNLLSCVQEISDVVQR
For assay [2], the target named is Ribosomal protein S6 kinase alpha-3 (Homo sapiens) (UniProt P51812). Description: Inhibition of human full length RSK2 expressed in baculovirus assessed as substrate phosphorylation using fluorescence-labelled peptides as substrate at 420 uM after 90 mins by microfluidic peptide phosphorylation assay.
Ribosomal protein S6 kinase alpha-3 (Homo sapiens), sequence (P51812 whole entry): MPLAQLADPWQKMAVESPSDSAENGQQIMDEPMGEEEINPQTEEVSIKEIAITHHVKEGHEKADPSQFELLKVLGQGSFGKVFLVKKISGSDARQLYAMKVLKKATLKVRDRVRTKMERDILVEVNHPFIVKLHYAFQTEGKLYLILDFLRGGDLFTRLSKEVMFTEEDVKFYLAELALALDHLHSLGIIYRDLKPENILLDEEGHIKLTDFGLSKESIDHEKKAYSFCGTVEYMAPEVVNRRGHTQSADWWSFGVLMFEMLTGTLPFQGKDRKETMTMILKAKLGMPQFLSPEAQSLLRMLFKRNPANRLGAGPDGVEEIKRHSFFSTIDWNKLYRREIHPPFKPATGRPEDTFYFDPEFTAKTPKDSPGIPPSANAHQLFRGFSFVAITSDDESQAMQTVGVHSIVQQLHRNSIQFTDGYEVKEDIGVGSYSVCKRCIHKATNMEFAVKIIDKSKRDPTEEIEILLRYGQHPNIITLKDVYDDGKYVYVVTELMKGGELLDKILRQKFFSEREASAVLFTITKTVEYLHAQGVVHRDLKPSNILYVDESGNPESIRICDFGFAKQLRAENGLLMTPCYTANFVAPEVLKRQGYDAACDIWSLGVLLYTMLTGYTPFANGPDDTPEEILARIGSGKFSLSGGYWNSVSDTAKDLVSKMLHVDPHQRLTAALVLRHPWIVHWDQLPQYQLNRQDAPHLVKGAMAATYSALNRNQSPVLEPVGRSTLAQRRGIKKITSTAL
Assay [3] is filed under the species Homo sapiens. The settings on record: 0.1 uM.
Description: Inhibition of human full length PKA expressed in baculovirus assessed as substrate phosphorylation using fluorescence-labelled peptides as substrate at 0.1 uM after 90 mins by microfluidic peptide phosphorylation assay
In assay [4] the target is T1, cGMP-dependent protein kinase 1 (Homo sapiens) (UniProt Q13976).
T1 sequence (whole entry): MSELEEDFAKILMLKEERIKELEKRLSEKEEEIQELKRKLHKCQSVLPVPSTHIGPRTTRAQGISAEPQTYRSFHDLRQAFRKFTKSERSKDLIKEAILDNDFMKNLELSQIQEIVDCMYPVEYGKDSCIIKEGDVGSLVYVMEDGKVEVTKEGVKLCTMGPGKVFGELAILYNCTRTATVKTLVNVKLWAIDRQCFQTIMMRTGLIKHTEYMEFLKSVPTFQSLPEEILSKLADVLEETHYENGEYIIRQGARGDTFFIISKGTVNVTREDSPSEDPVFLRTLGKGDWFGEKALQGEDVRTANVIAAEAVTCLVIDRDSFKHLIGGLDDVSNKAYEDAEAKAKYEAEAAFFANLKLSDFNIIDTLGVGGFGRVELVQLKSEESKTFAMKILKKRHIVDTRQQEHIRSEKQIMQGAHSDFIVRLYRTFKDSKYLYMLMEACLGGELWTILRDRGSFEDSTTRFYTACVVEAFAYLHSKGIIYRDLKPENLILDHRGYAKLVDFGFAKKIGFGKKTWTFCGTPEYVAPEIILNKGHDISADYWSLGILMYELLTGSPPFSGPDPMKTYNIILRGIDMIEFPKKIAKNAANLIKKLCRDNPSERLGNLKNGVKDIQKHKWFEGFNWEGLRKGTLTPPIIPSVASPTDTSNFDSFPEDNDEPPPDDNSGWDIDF
Description: Inhibition of human full length PKG-1beta expressed in baculovirus assessed as substrate phosphorylation using fluorescence-labelled peptides as substrate at 0.06 uM after 90 mins by microfluidic peptide phosphorylation assay.

Assay [5] deals with T2, Serine/threonine-protein kinase Sgk2 (Homo sapiens) (UniProt Q9HBY8).
T2 sequence (whole entry): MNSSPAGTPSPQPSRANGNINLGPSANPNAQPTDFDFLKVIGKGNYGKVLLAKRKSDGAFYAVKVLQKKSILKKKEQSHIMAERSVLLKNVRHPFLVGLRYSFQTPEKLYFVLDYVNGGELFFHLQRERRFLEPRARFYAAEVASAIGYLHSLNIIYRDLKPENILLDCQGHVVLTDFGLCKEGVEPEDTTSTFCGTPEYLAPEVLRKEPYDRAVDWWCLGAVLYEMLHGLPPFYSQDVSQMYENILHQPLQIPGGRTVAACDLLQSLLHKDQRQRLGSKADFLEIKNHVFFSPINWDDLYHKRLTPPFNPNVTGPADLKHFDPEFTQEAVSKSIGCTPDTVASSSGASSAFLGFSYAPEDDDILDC
Description: Inhibition of human full length SGK2 expressed in baculovirus assessed as substrate phosphorylation using fluorescence-labelled peptides as substrate at 0.06 uM after 90 mins by microfluidic peptide phosphorylation assay.

For assay [6], the target named is Tyrosine-protein kinase BTK (Homo sapiens) (UniProt Q06187). Description: Inhibition of human full length BTK expressed in baculovirus assessed as substrate phosphorylation using fluorescence-labelled peptides as substrate at 0.2 uM after 90 mins by microfluidic peptide phosphorylation assay.
Tyrosine-protein kinase BTK (Homo sapiens), sequence (Q06187 whole entry, the tested form may be a part): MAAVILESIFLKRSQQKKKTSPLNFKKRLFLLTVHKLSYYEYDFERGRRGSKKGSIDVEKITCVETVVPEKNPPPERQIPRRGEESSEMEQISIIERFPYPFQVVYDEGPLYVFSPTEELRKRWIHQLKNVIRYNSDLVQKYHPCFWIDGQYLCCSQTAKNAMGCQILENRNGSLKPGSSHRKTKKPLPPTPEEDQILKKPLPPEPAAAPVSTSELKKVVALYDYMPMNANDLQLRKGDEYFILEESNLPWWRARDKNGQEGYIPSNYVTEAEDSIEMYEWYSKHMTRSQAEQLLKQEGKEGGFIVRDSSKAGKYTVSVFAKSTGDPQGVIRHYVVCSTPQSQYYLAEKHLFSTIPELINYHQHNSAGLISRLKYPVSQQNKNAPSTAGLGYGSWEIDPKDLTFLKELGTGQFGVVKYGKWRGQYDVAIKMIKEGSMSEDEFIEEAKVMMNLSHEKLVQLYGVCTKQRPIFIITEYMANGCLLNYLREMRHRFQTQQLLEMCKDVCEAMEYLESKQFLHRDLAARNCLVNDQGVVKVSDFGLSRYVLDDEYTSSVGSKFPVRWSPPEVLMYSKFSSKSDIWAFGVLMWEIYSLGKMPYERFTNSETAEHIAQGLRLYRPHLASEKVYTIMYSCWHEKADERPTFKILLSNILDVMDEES
For assay [7], the species on record is Homo sapiens. Description: Inhibition of human P70S6K catalytic domain expressed in baculovirus assessed as substrate phosphorylation using fluorescence-labelled peptides as substrate at 0.2 uM after 90 mins by microfluidic peptide phosphorylation assay.
For assay [8], the target named is MAP kinase-activated protein kinase 2 (Homo sapiens) (UniProt P49137). Description: Inhibition of human full length MAPKAPK2 expressed in baculovirus assessed as substrate phosphorylation using fluorescence-labelled peptides as substrate at 0.2 uM after 90 mins by microfluidic peptide phosphorylation assay.
MAP kinase-activated protein kinase 2 (Homo sapiens), sequence (P49137 whole entry, looked up): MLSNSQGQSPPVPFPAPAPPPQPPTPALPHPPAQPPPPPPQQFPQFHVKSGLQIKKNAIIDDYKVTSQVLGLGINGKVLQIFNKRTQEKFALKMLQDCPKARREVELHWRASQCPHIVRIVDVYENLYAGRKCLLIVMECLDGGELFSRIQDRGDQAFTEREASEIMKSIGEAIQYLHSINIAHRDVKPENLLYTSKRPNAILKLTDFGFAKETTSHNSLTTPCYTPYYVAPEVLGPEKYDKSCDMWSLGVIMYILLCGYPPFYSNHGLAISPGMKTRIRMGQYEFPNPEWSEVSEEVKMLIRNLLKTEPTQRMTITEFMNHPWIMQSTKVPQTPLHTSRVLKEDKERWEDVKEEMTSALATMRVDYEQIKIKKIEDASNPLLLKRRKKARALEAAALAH
Assay [9] has as its target T1, cGMP-dependent protein kinase 1 (Homo sapiens). Description: Inhibition of human full length PKG-1a expressed in baculovirus assessed as substrate phosphorylation using fluorescence-labelled peptides as substrate at 70 uM after 90 mins by microfluidic peptide phosphorylation assay.
Assay [10] concerns the target Glycogen synthase kinase-3 beta (Homo sapiens) (UniProt P49841). Description: Inhibition of human full length GSK-3 beta expressed in baculovirus assessed as substrate phosphorylation using fluorescence-labelled peptides as substrate at 70 uM after 90 mins by microfluidic peptide phosphorylation assay.
For assay [11], the species on record is Homo sapiens. Description: Inhibition of human full length PKA expressed in baculovirus assessed as substrate phosphorylation using fluorescence-labelled peptides as substrate at 2 uM after 90 mins by microfluidic peptide phosphorylation assay.
Assay [12] deals with Calcium/calmodulin-dependent protein kinase type II subunit beta (Homo sapiens) (UniProt Q13554). Description: Inhibition of human CAMK2 beta catalytic domain expressed in baculovirus assessed as substrate phosphorylation using fluorescence-labelled peptides as substrate at 95 uM after 90 mins by microfluidic peptide phosphorylation assay.
The target in assay [13] is Mitogen-activated protein kinase kinase kinase kinase 4 (Homo sapiens) (UniProt O95819). Description: Inhibition of human HGK catalytic domain expressed in baculovirus assessed as substrate phosphorylation using fluorescence-labelled peptides as substrate at 95 uM after 90 mins by microfluidic peptide phosphorylation assay.
Mitogen-activated protein kinase kinase kinase kinase 4 (Homo sapiens), sequence (O95819 2-1239 limits assumed): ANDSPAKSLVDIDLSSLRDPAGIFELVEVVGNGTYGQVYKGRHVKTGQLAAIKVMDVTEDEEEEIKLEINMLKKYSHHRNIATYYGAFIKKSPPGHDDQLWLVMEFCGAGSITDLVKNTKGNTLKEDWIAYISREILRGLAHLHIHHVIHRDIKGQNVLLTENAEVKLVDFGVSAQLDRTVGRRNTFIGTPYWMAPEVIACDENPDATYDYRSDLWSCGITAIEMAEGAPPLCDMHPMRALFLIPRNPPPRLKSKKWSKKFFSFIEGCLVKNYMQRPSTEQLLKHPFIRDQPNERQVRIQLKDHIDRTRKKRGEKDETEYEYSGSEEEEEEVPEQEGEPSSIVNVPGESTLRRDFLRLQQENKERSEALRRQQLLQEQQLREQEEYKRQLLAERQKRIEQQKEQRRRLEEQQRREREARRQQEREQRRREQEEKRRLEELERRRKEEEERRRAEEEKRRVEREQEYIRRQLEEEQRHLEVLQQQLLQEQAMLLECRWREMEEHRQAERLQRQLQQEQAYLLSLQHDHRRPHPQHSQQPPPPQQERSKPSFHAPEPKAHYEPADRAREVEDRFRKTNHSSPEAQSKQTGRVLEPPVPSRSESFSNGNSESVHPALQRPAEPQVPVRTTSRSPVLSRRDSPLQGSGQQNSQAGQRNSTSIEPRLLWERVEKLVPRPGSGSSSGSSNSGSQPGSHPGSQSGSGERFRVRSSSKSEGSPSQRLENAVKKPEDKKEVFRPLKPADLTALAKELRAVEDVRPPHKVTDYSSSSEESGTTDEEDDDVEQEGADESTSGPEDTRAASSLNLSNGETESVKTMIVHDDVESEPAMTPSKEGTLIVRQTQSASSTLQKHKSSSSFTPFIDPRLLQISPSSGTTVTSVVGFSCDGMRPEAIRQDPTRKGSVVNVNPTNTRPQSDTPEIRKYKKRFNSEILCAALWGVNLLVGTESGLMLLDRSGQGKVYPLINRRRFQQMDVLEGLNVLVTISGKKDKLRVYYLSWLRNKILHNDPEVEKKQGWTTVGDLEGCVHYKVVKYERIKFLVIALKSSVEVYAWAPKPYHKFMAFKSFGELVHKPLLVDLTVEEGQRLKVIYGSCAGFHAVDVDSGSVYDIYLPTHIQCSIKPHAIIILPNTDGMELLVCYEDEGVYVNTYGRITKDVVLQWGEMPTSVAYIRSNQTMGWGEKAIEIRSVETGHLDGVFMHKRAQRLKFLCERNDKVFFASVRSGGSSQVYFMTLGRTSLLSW
Assay [14] has as its system Tyrosine-protein kinase ABL1 (Homo sapiens), P00519 [Q252H]. Description: Inhibition of human truncated ABL Q252H mutant expressed in baculovirus assessed as substrate phosphorylation using fluorescence-labelled peptides as substrate at 95 uM after 90 mins by microfluidic peptide phosphorylation assay.
The target in assay [15] is T3, Testis-specific serine/threonine-protein kinase 2 (Homo sapiens) (UniProt Q96PF2).
T3 sequence (whole entry): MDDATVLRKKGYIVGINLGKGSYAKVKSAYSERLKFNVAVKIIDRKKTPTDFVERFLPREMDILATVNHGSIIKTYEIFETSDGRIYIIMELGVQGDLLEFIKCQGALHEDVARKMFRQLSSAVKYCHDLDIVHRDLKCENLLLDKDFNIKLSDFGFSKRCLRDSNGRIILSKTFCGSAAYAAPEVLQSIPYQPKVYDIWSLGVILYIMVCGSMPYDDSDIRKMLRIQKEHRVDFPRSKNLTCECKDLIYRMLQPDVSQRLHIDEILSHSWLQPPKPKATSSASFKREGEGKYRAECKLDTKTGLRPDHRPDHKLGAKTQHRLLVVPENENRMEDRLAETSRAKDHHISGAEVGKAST
Description: Inhibition of human full length TSSK2 expressed in baculovirus assessed as substrate phosphorylation using fluorescence-labelled peptides as substrate at 1000 uM after 90 mins by microfluidic peptide phosphorylation assay.

For assay [16], the target named is Ribosomal protein S6 kinase alpha-4 (Homo sapiens) (UniProt O75676). Description: Inhibition of human full length MSK2 expressed in baculovirus assessed as substrate phosphorylation using fluorescence-labelled peptides as substrate at 1000 uM after 90 mins by microfluidic peptide phosphorylation assay.

Glycogen synthase kinase-3 beta (Homo sapiens), sequence (P49841 whole entry, looked up): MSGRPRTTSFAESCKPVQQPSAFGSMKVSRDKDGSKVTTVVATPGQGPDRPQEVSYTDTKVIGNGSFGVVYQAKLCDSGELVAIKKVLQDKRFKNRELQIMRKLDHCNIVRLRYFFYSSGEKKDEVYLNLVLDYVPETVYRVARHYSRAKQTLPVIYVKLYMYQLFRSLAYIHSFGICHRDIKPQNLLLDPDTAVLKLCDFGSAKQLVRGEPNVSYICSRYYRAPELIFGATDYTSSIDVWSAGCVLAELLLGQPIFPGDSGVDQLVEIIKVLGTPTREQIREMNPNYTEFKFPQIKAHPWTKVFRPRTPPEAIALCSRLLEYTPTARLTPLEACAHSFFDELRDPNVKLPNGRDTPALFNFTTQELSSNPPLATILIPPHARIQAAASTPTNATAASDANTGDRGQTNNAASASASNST

`c1nc(N2CCOCC2)c2nc[nH]c2n1`: the results for the inhibition in [1] and in assay [2] were 54.5% and 95%, respectively.
In the assay listed under Homo sapiens [3], `C[C@H](CN(C)C)Oc1nc(Nc2cc3cccc(Cl)c3cn2)cnc1C#N` came in with an inhibition of 0%.
On to `NC1(Cc2ccc(Cl)cc2)CCN(c2ncnc3[nH]ccc23)CC1`, for which the inhibition in assay [4] is 0%; in assay [5], 9%.
On to `Clc1ccc(C2(c3ccc(-c4ncnc5[nH]cnc45)cc3)CCNCC2)cc1`, for which the inhibition came out at 0% in assay [6], 87.5% in the assay filed under Homo sapiens [7] and 10.5% in [8].
As for `CNCc1ccc(-c2ncnc3[nH]cnc23)cc1`, the inhibition in [9] worked out at 97.5%; in [10], 37.5%.
Take `NC1CCN(c2ncnc3[nH]ccc23)CC1`: the inhibition in the assay filed under Homo sapiens [11] was 21%.
Turning to `NCCc1ccc(-c2ncnc3[nH]cnc23)cc1`, the inhibition in assay [12] came to 2%; in [13] it was 39.5%; in assay [14], 67.5%.
As for `c1cnc2[nH]ccc2c1`, the inhibition worked out at 37% in [15] and 81% in assay [16].

Usually inhibition stands for the drop in the measured response relative to a control, in per cent.
